Values after ≈ are worked out from the molar mass of the structure shown.
Experiments:
Fusarium solani = experiment: Antimicrobial activity against Fusarium solani NRRL 13414 after 48 to 72 hrs by microbroth dilution method; format: functional
Fusarium verticillioides = experiment: Antimicrobial activity against Fusarium moniliforme NRRL 1866 after 48 to 72 hrs by microbroth dilution method; format: functional
Listeria monocytogenes = experiment: Antimicrobial activity against Listeria monocytogenes ATCC 7644 after 18 to 24 hrs by microbroth dilution method; format: functional
Candida albicans = experiment: Antimicrobial activity against Candida albicans ATCC 22019 after 18 to 24 hrs by microbroth dilution method; format: functional
Penicillium chrysogenum = experiment: Antimicrobial activity against Penicillium chrysogenum NRRL 1951 after 48 to 72 hrs by microbroth dilution method; format: functional
Fusarium culmorum = experiment: Antimicrobial activity against wild type Fusarium culmorum after 48 to 72 hrs by microbroth dilution method; format: functional
Pseudomonas aeruginosa = experiment: Antimicrobial activity against Pseudomonas aeruginosa […] after 18 to 24 hrs by microbroth dilution method; format: functional
NIH3T3 = experiment: Cytotoxicity against mouse NIH/3T3 cells after 24 hrs by MTT assay; format: cell-based; conditions: NIH3T3, 24 h
Escherichia coli = experiment: Antimicrobial activity against Escherichia coli ATCC 25922 after 18 to 24 hrs by microbroth dilution method; format: functional
Staphylococcus aureus = experiment: Antimicrobial activity against Staphylococcus aureus NRRL B-767 after 18 to 24 hrs by microbroth dilution method; format: functional
Micrococcus luteus = experiment: Antimicrobial activity against Micrococcus luteus NRLL B-4375 after 18 to 24 hrs by microbroth dilution method; format: functional
Aspergillus parasiticus = experiment: Antimicrobial activity against Aspergillus parasiticus NRRL 465 after 48 to 72 hrs by microbroth dilution method; format: functional
Bacillus subtilis = experiment: Antimicrobial activity against Bacillus subtilis NRS-744 after 18 to 24 hrs by microbroth dilution method; format: functional
Aspergillus ochraceus = experiment: Antimicrobial activity against Aspergillus ochraceus NRRL 3174 after 48 to 72 hrs by microbroth dilution method; format: functional
Trichoderma harzianum = experiment: Antimicrobial activity against Trichoderma harzianum NRRL 20565 after 48 to 72 hrs by microbroth dilution method; format: functional

Row | Compound | MIC (Fusarium solani) [µg/mL] | MIC (Fusarium verticillioides) [µg/mL] | MIC (Listeria monocytogenes) [µg/mL] | MIC (Candida albicans) [µg/mL] | MIC (Penicillium chrysogenum) [µg/mL] | MIC (Fusarium culmorum) [µg/mL] | MIC (Pseudomonas aeruginosa) [µg/mL] | MIC (Escherichia coli) [µg/mL] | MIC (Staphylococcus aureus) [µg/mL] | MIC (Micrococcus luteus) [µg/mL] | MIC (Aspergillus parasiticus) [µg/mL] | MIC (Bacillus subtilis) [µg/mL] | MIC (Aspergillus ochraceus) [µg/mL] | MIC (Trichoderma harzianum) [µg/mL] | IC50 (NIH3T3) [µg/mL]
1 | Cn1nnnc1SCC(=O)N/N=c1/scc(-c2ccc(Br)cc2)n1-c1ccccc1 | 250 (≈ 498 µM) | 250 (≈ 498 µM) | 250 (≈ 498 µM) | 250 (≈ 498 µM) | 250 (≈ 498 µM) | 125 (≈ 249 µM) | 250 (≈ 498 µM) | 250 (≈ 498 µM) | 250 (≈ 498 µM) | 125 (≈ 249 µM) | 250 (≈ 498 µM) | 250 (≈ 498 µM) | 250 (≈ 498 µM) | 125 (≈ 249 µM) | 19.3 (≈ 38.4 µM)
2 | N#Cc1ccc(-c2cs/c(=N/NC(=O)CSc3ncccn3)n2-c2ccccc2)cc1 | 250 (≈ 562 µM) | 250 (≈ 562 µM) | 250 (≈ 562 µM) | 250 (≈ 562 µM) | 250 (≈ 562 µM) | 250 (≈ 562 µM) | 125 (≈ 281 µM) | 250 (≈ 562 µM) | 250 (≈ 562 µM) | 250 (≈ 562 µM) | 250 (≈ 562 µM) | 250 (≈ 562 µM) | 250 (≈ 562 µM) | 250 (≈ 562 µM) | < 3.9
3 | CC(=O)N1CCN(c2ccc(OCC3COC(Cn4ccnc4)(c4ccc(Cl)cc4Cl)O3)cc2)CC1 (stereo not drawn) [KETOCONAZOLE] | 500 (≈ 941 µM) | 500 (≈ 941 µM) | – | 250 (≈ 470 µM) | 7.8 (≈ 14.7 µM) | 500 (≈ 941 µM) | – | – | – | – | 125 (≈ 235 µM) | – | 250 (≈ 470 µM) | 250 (≈ 470 µM) | –
4 | Cn1cnnc1SCC(=O)N/N=c1/scc(-c2ccc(F)cc2)n1-c1ccccc1 | 250 (≈ 567 µM) | 250 (≈ 567 µM) | 125 (≈ 284 µM) | 250 (≈ 567 µM) | 250 (≈ 567 µM) | 250 (≈ 567 µM) | 125 (≈ 284 µM) | 125 (≈ 284 µM) | 125 (≈ 284 µM) | 250 (≈ 567 µM) | 250 (≈ 567 µM) | 250 (≈ 567 µM) | 250 (≈ 567 µM) | 250 (≈ 567 µM) | 65 (≈ 148 µM)

More lines, in order of falling MIC (Fusarium solani), values ahead:

Row | MIC (Fusarium solani) [µg/mL] | MIC (Fusarium verticillioides) [µg/mL] | MIC (Listeria monocytogenes) [µg/mL] | MIC (Candida albicans) [µg/mL] | MIC (Penicillium chrysogenum) [µg/mL] | MIC (Fusarium culmorum) [µg/mL] | MIC (Pseudomonas aeruginosa) [µg/mL] | MIC (Escherichia coli) [µg/mL] | MIC (Staphylococcus aureus) [µg/mL] | MIC (Micrococcus luteus) [µg/mL] | MIC (Aspergillus parasiticus) [µg/mL] | MIC (Bacillus subtilis) [µg/mL] | MIC (Aspergillus ochraceus) [µg/mL] | MIC (Trichoderma harzianum) [µg/mL] | Compound | IC50 (NIH3T3) [µg/mL]
5 | 250 (≈ 552 µM) | 250 (≈ 552 µM) | 250 (≈ 552 µM) | 250 (≈ 552 µM) | 250 (≈ 552 µM) | 250 (≈ 552 µM) | 250 (≈ 552 µM) | 250 (≈ 552 µM) | 250 (≈ 552 µM) | 250 (≈ 552 µM) | 250 (≈ 552 µM) | 250 (≈ 552 µM) | 250 (≈ 552 µM) | 250 (≈ 552 µM) | COc1ccc(-c2cs/c(=N/NC(=O)CSc3nncn3C)n2-c2ccccc2)cc1 | 167 (≈ 368 µM)
6 | 250 (≈ 538 µM) | 250 (≈ 538 µM) | 250 (≈ 538 µM) | 250 (≈ 538 µM) | 250 (≈ 538 µM) | 250 (≈ 538 µM) | 250 (≈ 538 µM) | 250 (≈ 538 µM) | 250 (≈ 538 µM) | 250 (≈ 538 µM) | 250 (≈ 538 µM) | 250 (≈ 538 µM) | 250 (≈ 538 µM) | 125 (≈ 269 µM) | Cc1nnc(SCC(=O)N/N=c2/scc(-c3ccc(C#N)cc3)n2-c2ccccc2)s1 | < 3.9
7 | 250 (≈ 535 µM) | 250 (≈ 535 µM) | 250 (≈ 535 µM) | 250 (≈ 535 µM) | 250 (≈ 535 µM) | 250 (≈ 535 µM) | 250 (≈ 535 µM) | 250 (≈ 535 µM) | 250 (≈ 535 µM) | 125 (≈ 267 µM) | 250 (≈ 535 µM) | 125 (≈ 267 µM) | 250 (≈ 535 µM) | 250 (≈ 535 µM) | Cn1cnnc1SCC(=O)N/N=c1/scc(-c2ccc([N+](=O)[O-])cc2)n1-c1ccccc1 | 133 (≈ 285 µM)
8 | 250 (≈ 596 µM) | 250 (≈ 596 µM) | 250 (≈ 596 µM) | 250 (≈ 596 µM) | 250 (≈ 596 µM) | 250 (≈ 596 µM) | 250 (≈ 596 µM) | 250 (≈ 596 µM) | 250 (≈ 596 µM) | 250 (≈ 596 µM) | 250 (≈ 596 µM) | 500 (≈ 1190 µM) | 250 (≈ 596 µM) | 250 (≈ 596 µM) | O=C(CSc1ncccn1)N/N=c1/scc(-c2ccccc2)n1-c1ccccc1 | 107 (≈ 254 µM)
9 | 250 (≈ 499 µM) | 250 (≈ 499 µM) | 250 (≈ 499 µM) | 250 (≈ 499 µM) | 250 (≈ 499 µM) | 250 (≈ 499 µM) | 250 (≈ 499 µM) | 250 (≈ 499 µM) | 250 (≈ 499 µM) | 250 (≈ 499 µM) | 250 (≈ 499 µM) | 250 (≈ 499 µM) | 250 (≈ 499 µM) | 125 (≈ 249 µM) | Cn1cnnc1SCC(=O)N/N=c1/scc(-c2ccc(Br)cc2)n1-c1ccccc1 | 58.3 (≈ 116 µM)
10 | 250 (≈ 547 µM) | 250 (≈ 547 µM) | 250 (≈ 547 µM) | 250 (≈ 547 µM) | 250 (≈ 547 µM) | 250 (≈ 547 µM) | 250 (≈ 547 µM) | 125 (≈ 274 µM) | 125 (≈ 274 µM) | 125 (≈ 274 µM) | 250 (≈ 547 µM) | 125 (≈ 274 µM) | 250 (≈ 547 µM) | 125 (≈ 274 µM) | Cn1cnnc1SCC(=O)N/N=c1/scc(-c2ccc(Cl)cc2)n1-c1ccccc1 | 51.7 (≈ 113 µM)

From ChEMBL document CHEMBL3124777, “Synthesis and biological evaluation of thiazoline derivatives as new antimicrobial and anticancer agents” (Eur J Med Chem, 2014)
